{
  "source": "patent US20120128580A1",
  "about": "“PRESELECTION OF SUBJECTS FOR THERAPEUTIC TREATMENT WITH ELESCLOMOL BASED ON HYPOXIC STATUS” (SYNTA PHARMACEUTICALS CORP., priority 2010, published 2012)",
  "key": {"[1]": {"tested_on": "Stage 1V Metastatic melanoma", "assay": "Phase I/II study, elesclomol in combination with paclitaxel", "format": "in vivo, human", "details": "i.v. weekly for three weeks of 28 day cycle", "description": "For example, a Phase I/II study was performed to test elesclomol in combination with paclitaxel in patients with Stage 1V Metastatic melanoma. Subjects were dosed intravenously with 80 mg/m^2 of paclitaxel either with or without 213 mg/m^2 of elesclomol once per week for the first three weeks, followed by one week off (i.e., a 28 day cycle with dosing on days 1, 8, and 14) with the 28 day dosing cycle repeated until tumor progression, likely resulting in complete clearance of elesclomol between doses."}, "[2]": {"tested_on": "Stave IV Metastatic melanoma", "assay": "Phase III study, elesclomol in combination with paclitaxel versus paclitaxel alone", "format": "in vivo, human", "details": "for Median (months) Overall Survival / Median (months) PFS: Phase III; for Median Progression Free Survival: Phase III metastatic melanoma, chemotherapy-naive", "description": "Further, a Phase III study was performed to test elesclomol in combination with paclitaxel versus paclitaxel alone in chemotherapy-naïve subjects with Stave IV Metastatic melanoma. Subjects with metastatic melanoma were randomized with a ratio of 1:1 to either the treatment arm (elesclomol 213 mg/m^2 in combination with paclitaxel 80 mg/m^2) or the control arm (paclitaxel 80 mg/m^2 alone) once per week for the first three weeks, followed by one week off (i.e., a 28 day cycle with dosing on days 1, 8, and 14) with the 28 day dosing cycle repeated until tumor progression, likely resulting in complete clearance of elesclomol between doses. The population enrolled into the study was to have baseline LDH levels limited to 2 times upper limit of normal (ULN) values."}},
  "data": [
    {"compound": "CC(=O)O[C@H]1C(=O)[C@@]2(C)[C@H]([C@H](OC(=O)c3ccccc3)[C@]3(O)C[C@H](OC(=O)[C@H](O)[C@@H](NC(=O)c4ccccc4)c4ccccc4)C(C)=C1C3(C)C)[C@]1(OC(C)=O)CO[C@@H]1C[C@@H]2O", "note": "[P alone, paclitaxel]", "values": [
      {"measurement": "Median Progression Free Survival", "setting": "[1]; High LDH", "value": "1.6 (95% CI: 1.0-3.0) months"},
      {"measurement": "Median Progression Free Survival", "setting": "[1]; High LDH, listed as paclitaxel", "value": 1.6, "unit": "months"},
      {"measurement": "Median Progression Free Survival", "setting": "[1]; Low LDH", "value": "3.5 (95% CI: 1.6-7.3) months"},
      {"measurement": "Median Progression Free Survival", "setting": "[1]; Low LDH, listed as paclitaxel", "value": 3.5, "unit": "months"},
      {"measurement": "Median (months) Overall Survival", "setting": "[2]; High LDH (>1 × ULN)", "value": 8.1, "unit": "months"},
      {"measurement": "Median (months) PFS", "setting": "[2]; High LDH (>1 × ULN)", "value": 1.9, "unit": "months"},
      {"measurement": "Median Progression Free Survival", "setting": "[2]; High LDH", "value": "1.9 (95% CI: 1.8-2.6) months"},
      {"measurement": "Median (months) Overall Survival", "setting": "[2]; ITT Population", "value": 11.7, "unit": "months"},
      {"measurement": "Median (months) PFS", "setting": "[2]; ITT Population", "value": 1.9, "unit": "months"},
      {"measurement": "Median (months) PFS", "setting": "[2]; Low LDH (≦0.8 × ULN)", "value": 2.1, "unit": "months"},
      {"measurement": "Median (months) Overall Survival", "setting": "[2]; Low LDH (≦0.8 × ULN), listed as Paclitaxel alone", "value": "Not Ach."},
      {"measurement": "Median (months) Overall Survival", "setting": "[2]; Low LDH (≦0.8 × ULN), listed as paclitaxel alone", "value": "not achieved"},
      {"measurement": "Median Progression Free Survival", "setting": "[2]; Low LDH", "value": "2.1 (95% CI: 1.9-3.6) months"},
      {"measurement": "Median (months) Overall Survival", "setting": "[2]; Normal LDH (≦1 × ULN)", "value": 14.5, "unit": "months"},
      {"measurement": "Median (months) PFS", "setting": "[2]; Normal LDH (≦1 × ULN)", "value": 2.1, "unit": "months"}
    ]}
  ]
}
